Test results as given in patent US10543212B2, “Substituted amines for treating cardiac diseases” (Cardurion Pharmaceuticals, LLC, priority 2017, dated 2020).

Target: T1, Full-length, GST-tagged, human CaMKIIδ (Homo sapiens, UniProt Q13557)
T1 construct: Full-Length, Glutathione-S-Transferase(GST)-Tagged, Human CaMKIIδ was purchased from Carna Biosciences; purchased Carna Biosciences 02-111
Experiment: CaMKIIδ binding assay (TR-FRET with BODIPY-labeled probe ligand)
Settings: CaMKIIδ binding assay, results of Table 2
Procedure, shortened: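 Compounds were tested as 4-fold, eight-point series for 1 hr at room temperature, and IC50 was obtained by logistic fitting against a 3 μM parent-compound control. Signal came from displacement of a 300 nM BODIPY ligand from 0.5 nM GST-CaMKIIδ, detected via Tb-anti-GST in calmodulin/Ca2+ (pH 7.6).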

T1 sequence (Q13557 1-478 isoform Q13557-12): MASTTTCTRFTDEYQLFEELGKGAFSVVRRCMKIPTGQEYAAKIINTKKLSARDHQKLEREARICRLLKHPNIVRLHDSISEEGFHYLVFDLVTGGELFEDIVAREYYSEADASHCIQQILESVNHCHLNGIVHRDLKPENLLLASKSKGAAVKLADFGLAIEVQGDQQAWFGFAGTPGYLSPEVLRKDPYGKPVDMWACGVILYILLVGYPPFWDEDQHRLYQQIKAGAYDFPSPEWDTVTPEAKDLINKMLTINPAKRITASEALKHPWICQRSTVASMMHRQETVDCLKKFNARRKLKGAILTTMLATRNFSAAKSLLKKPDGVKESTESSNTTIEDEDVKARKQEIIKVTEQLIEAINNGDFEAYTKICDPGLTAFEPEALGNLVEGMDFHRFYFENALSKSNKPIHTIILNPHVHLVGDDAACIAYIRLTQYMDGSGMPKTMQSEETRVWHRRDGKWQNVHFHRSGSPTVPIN

Compound | IC50
C[C@@H](Cn1cnnn1)Oc1cc(-c2cnc(Nc3cc4c(cc3Cl)CCNCC4)nc2)ccc1C#N [Example 527, (S)-2-((1-(1H-tetrazol-1-yl)propan-2-yl)oxy)-4-(2-((8-chloro-2,3,4,5-tetrahydro-1H-benzo[d]azepin-7-yl)amino)pyrimidin-5-yl)benzonitrile] | < 0.01 µM
C[C@@H](Cn1cnnn1)Oc1cc(-c2cnc(Nc3ccc4c(c3)N(C(=O)CCN(C)C)CC4)nc2)ccc1Cl [Example 437, (S)-1-(6-((5-(3-((1-(1H-tetrazol-1-yl)propan-2-yl)oxy)-4-chlorophenyl)pyrimidin-2-yl)amino)indolin-1-yl)-3-(dimethylamino)propan-1-one] | < 0.01 µM
C[C@@H](Cn1cnnn1)Oc1cc(-c2cnc(Nc3cc4c(cc3C3CC3)CCN(C3COC3)C4)nc2)ccc1C#N [Example 524, (S)-2-((1-(1H-tetrazol-1-yl)propan-2-yl)oxy)-4-(2-((6-cyclopropyl-2-(oxetan-3-yl)-1,2,3,4-tetrahydroisoquinolin-7-yl)amino)pyrimidin-5-yl)benzonitrile] | 0.01 to 0.1 µM
C[C@@H](Cn1cnnn1)Oc1cc(-c2cnc(Nc3cn(C4CCN(C5CCOCC5)CC4)nc3C3CC3)nc2)ccc1Cl [Example 545, (S)-5-(3-((1-(1H-tetrazol-1-yl)propan-2-yl)oxy)-4-chlorophenyl)-N-(3-cyclopropyl-1-(1-(tetrahydro-2H-pyran-4-yl)piperidin-4-yl)-1H-pyrazol-4-yl)pyrimidin-2-amine] | < 0.01 µM
COc1cc2c(cc1Nc1ncc(-c3ccc(Cl)c(O[C@@H](C)Cn4cnnn4)c3)cn1)CN(CC1COC1)CC2 [Example 499, (S)-N-(5-(3-((1-(1H-tetrazol-1-yl)propan-2-yl)oxy)-4-chlorophenyl)pyrimidin-2-yl)-6-methoxy-2-(oxetan-3-ylmethyl)-1,2,3,4-tetrahydroisoquinolin-7-amine] | < 0.01 µM
COc1cc2c(cc1Nc1ncc(-c3ccc(Cl)c(O[C@@H](C)Cn4cnnn4)c3)cn1)N(CC1COC1)CC2 [Example 503, (S)-N-(5-(3-((1-(1H-tetrazol-1-yl)propan-2-yl)oxy)-4-chlorophenyl)pyrimidin-2-yl)-5-methoxy-1-(oxetan-3-ylmethyl)indolin-6-amine] | 0.01 to 0.1 µM
CCc1cc2c(cc1Nc1ncc(-c3ccc(Cl)c(O[C@@H](C)Cn4cnnn4)c3)cn1)CN(C1COC1)CC2 [Example 515, (S)-N-(5-(3-((1-(1H-tetrazol-1-yl)propan-2-yl)oxy)-4-chlorophenyl)pyrimidin-2-yl)-6-ethyl-2-(oxetan-3-yl)-1,2,3,4-tetrahydroisoquinolin-7-amine] | 0.01 to 0.1 µM
C[C@@H](Cn1cnnn1)Oc1cc(-c2cnc(Nc3cn(C4CCN(Cc5cc[nH]n5)CC4)nc3C(F)(F)F)nc2)ccc1Cl [Example 561, (S)-N-(1-(1-((1H-pyrazol-3-yl)methyl)piperidin-4-yl)-3-(trifluoromethyl)-1H-pyrazol-4-yl)-5-(3-((1-(1H-tetrazol-1-yl)propan-2-yl)oxy)-4-chlorophenyl)pyrimidin-2-amine] | < 0.01 µM

Same assay, conditions: CaMKIIδ binding assay; activity class per Table 2

Compound | IC50
C[C@@H](Cn1cnnn1)Oc1cc(-c2cnc(Nc3cn(C4(C(N)=O)CCC4)nc3OCC(F)(F)F)nc2)ccc1Cl [Example 917, (S)-1-(4-((5-(3-((1-(1H-tetrazol-1-yl)propan-2-yl)oxy)-4-chlorophenyl)pyrimidin-2-yl)amino)-3-(2,2,2-trifluoroethoxy)-1H-pyrazol-1-yl)cyclobutane-1-carboxamide] | < 0.01 µM
CCn1ncc(Nc2ncc(-c3ccc(Cl)c(O[C@@H](C)Cn4cnnn4)c3)cn2)c1C(=O)N1CCC(N2CCOCC2)CC1 [Example 880, (S)-(4-((5-(3-((1-(1H-tetrazol-1-yl)propan-2-yl)oxy)-4-chlorophenyl)pyrimidin-2-yl)amino)-1-ethyl-1H-pyrazol-5-yl) (4-morpholinopiperidin-1-yl)methanone] | ≥ 0.1 µM

Same assay, conditions: Table 2; CaMKIIδ binding assay, activity given as class A/B/C

Compound | IC50
C[C@@H](Cn1cnnn1)Oc1cc(-c2cnc(Nc3cn(C4CCN(C(=O)OC(C)(C)C)CC4)nc3C(F)F)nc2)ccc1Cl [Example 766, tert-butyl (S)-4-(4-((5-(3-((1-(1H-tetrazol-1-yl)propan-2-yl)oxy)-4-chlorophenyl)pyrimidin-2-yl)amino)-3-(difluoromethyl)-1H-pyrazol-1-yl)piperidine-1-carboxylate] | 0.01 to 0.1 µM
C[C@@H](Cn1cnnn1)Oc1cc(-c2cnc(Nc3cn(-c4cccc(=O)[nH]4)nc3OCC(F)(F)F)nc2)ccc1Cl [Example 879, (S)-6-(4-((5-(3-((1-(1H-tetrazol-1-yl)propan-2-yl)oxy)-4-chlorophenyl)pyrimidin-2-yl)amino)-3-(2,2,2-trifluoroethoxy)-1H-pyrazol-1-yl)pyridin-2(1H)-one] | 0.01 to 0.1 µM
C[C@@H](Cn1cnnn1)Oc1cc(-c2cnc(Nc3cn(C4CCN(C5CCC5)CC4)nc3OCCF)nc2)ccc1Cl [Example 826, (S)-5-(3-((1-(1H-tetrazol-1-yl)propan-2-yl)oxy)-4-chlorophenyl)-N-(1-(1-cyclobutylpiperidin-4-yl)-3-(2-fluoroethoxy)-1H-pyrazol-4-yl)pyrimidin-2-amine] | < 0.01 µM
C[C@@H](Cn1cnnn1)Oc1cc(-c2cnc(Nc3cn(CC4(O)CCC4)nc3OCC(F)(F)F)nc2)ccc1Cl [Example 853, (S)-1-((4-((5-(3-((1-(1H-tetrazol-1-yl)propan-2-yl)oxy)-4-chlorophenyl)pyrimidin-2-yl)amino)-3-(2,2,2-trifluoroethoxy)-1H-pyrazol-1-yl)methyl)cyclobutan-1-ol] | < 0.01 µM

Same assay, conditions: Table 2; activity class for CaMKIIδ

Compound | IC50
C[C@@H](Cn1cnnn1)Oc1cc(-c2cnc(Nc3cn(C4CCCN(C5COC5)C4)nc3C(F)(F)F)nc2)ccc1Cl (stereo partly drawn) [Example 601, 5-(3-(((S)-1-(1H-tetrazol-1-yl)propan-2-yl)oxy)-4-chlorophenyl)-N-(1-(1-(oxetan-3-yl)piperidin-3-yl)-3-(trifluoromethyl)-1H-pyrazol-4-yl)pyrimidin-2-amine] | 0.01 to 0.1 µM
C[C@@H](Cn1cnnn1)Oc1cc(-c2cnc(Nc3cn(CCNC(=O)c4ccccc4)nc3C(F)(F)F)nc2)ccc1Cl [Example 630, (S)-N-(2-(4-((5-(3-((1-(1H-tetrazol-1-yl)propan-2-yl)oxy)-4-chlorophenyl)pyrimidin-2-yl)amino)-3-(trifluoromethyl)-1H-pyrazol-1-yl)ethyl)benzamide] | ≥ 0.1 µM
COc1cc(N2CCCN(C3CCOCC3)CC2)ccc1Nc1ncc(-c2ccc(Cl)c(O[C@@H](C)Cn3cnnn3)c2)cn1 [Example 693, (S)-5-(3-((1-(1H-tetrazol-1-yl)propan-2-yl)oxy)-4-chlorophenyl)-N-(2-methoxy-4-(4-(tetrahydro-2H-pyran-4-yl)-1,4-diazepan-1-yl)phenyl)pyrimidin-2-amine] | < 0.01 µM
COc1ccc(N2CC(CN3CCOCC3)C2)cc1Nc1ncc(-c2ccc(Cl)c(O[C@@H](C)Cn3cnnn3)c2)cn1 [Example 656, (S)-5-(3-((1-(1H-tetrazol-1-yl)propan-2-yl)oxy)-4-chlorophenyl)-N-(2-methoxy-5-(3-(morpholinomethyl)azetidin-1-yl)phenyl)pyrimidin-2-amine] | < 0.01 µM
COc1cc2c(cc1Nc1ncc(-c3ccc(Cl)c(O[C@@H](C)Cn4cnnn4)c3)cn1)NCCC2 [Example 591, (S)-N-(5-(3-((1-(1H-tetrazol-1-yl)propan-2-yl)oxy)-4-chlorophenyl)pyrimidin-2-yl)-6-methoxy-1,2,3,4-tetrahydroquinolin-7-amine] | < 0.01 µM
